Measurements reported in patent US20180258123A1, “Suppressors of Premature Termination Codons as Therapeutics and Methods for Their Use” (The University of British Columbia, priority 2015, published 2018).

Columns and labels:
[1] = cited from earlier work
[2] = Toxicity observed in the in vivo read-through study; settings: 400 mg/kg intraperitoneal; mice sacrificed shortly after administration
Protocol: Methods for FIG. 8: Two million NCI-H1299 human non-small cell lung carcinoma cells stably expressing a TP53 expression construct bearing the R213X (TGA) nonsense mutation were implanted subcutaneously on the lower back of immunocompromised NRG (NOD-Rag1^null IL2rg^null) mice. […] 48 hours after the last injection, the mice were sacrificed and the amounts of truncated p53 and full-length p53 were determined by western analysis. […] Vinculin was used as a protein loading control.

[3] = tested on: HDQ-P1 cells, full-length p53; experiment: p53 read-through assay with steroids (western blotting, FIG. 4); format: cell-based, human
Protocol: HDQ-P1 cells were seeded at 100,000 cells per well of TC-treated 6-well plates. The next day, the medium was replaced with fresh medium containing compounds to be tested and were incubated for 48 to 96 h. The medium was removed by aspiration, cell monolayers were rinsed with 1 ml ice-cold PBS. Cells were lysed in 80 μl lysis buffer (20 mM Tris-HCl pH 7.5, 150 mM NaCl, 1 mM EDTA, 1 mM EGTA, 1% (v/v) Triton […], 2.5 mM sodium pyrophosphate, 1 mM beta-glycerophosphate supplemented with fresh 1 mM Na3VO4, 1 mM dithiothreitol and 1× complete protease inhibitor cocktail (Roche Molecular BiochemicalsTM)). Lysates were pre-cleared by centrifugation at 18,000 g for 15 min at 4° C. Supernatants were collected, protein was quantitated using the Bradford assay and lysates were adjusted to 1 mg/ml protein. Capillary electrophoresis and western analysis conditions were carried out with manufacturer's reagents according to the user manual (ProteinSimple WESTM). Briefly, 5.6 μl of cell lysate was mixed with 1.4 μl fluorescent master mix and heated at 95° C. for 5 min. The samples, blocking reagent, wash buffer, DO-1 p53 antibody (0.5 μg/ml) and vinculin antibody (1:2000, R&D clone 728526), secondary antibody and chemiluminescent substrate were dispensed into the microplate provided by the manufacturer. […] The data was analyzed with inbuilt CompassTM software (ProteinsimpleTM). […]

In the case of Gentamicin [reference compound], the nephrotoxicity and ototoxicity ([1]; in vivo) is given as “nephrotoxic and ototoxic” and the toxicity [2] is given as “induced acute toxicity”.

In the case of `CC(=O)O[C@]1(C(C)=O)CC[C@H]2[C@@H]3C[C@H](C)C4=CC(=O)CC[C@]4(C)[C@H]3CC[C@@]21C` [Medroxy pro, Medroxyprogesterone acetate], the “read-through activity of steroid alone” value [3] was “no read-through activity”.

For `CN[C@@H]1[C@@H](O)[C@@H](O[C@@H]2[C@@H](O)[C@H](O[C@H]3O[C@H]([C@@H](C)N)CC[C@H]3N)[C@@H](N)C[C@H]2N)OC[C@]1(C)O` [Gentamicin C2], the “nephrotoxicity of the major gentamicins” value ([1]; Kohlhepp S. J. et al. 1984) is listed as “nephrotoxicity was caused mainly by C2”.
